Consider four molecules from patent US9944721B2, “Polysialic acid and use for treatment of neurodegenerative and neuroinflammatory diseases” (RHEINISCHE FRIEDRICH-WILHELMS UNIVERSITÄT BONN, priority 2013, dated 2018).

Common to all, as to type: cell-based
Data set [1] relates to human microglial line derived from induced pluripotent stem cells (expressing Siglec-11). Nature of the data set: MTT cell viability of human microglia treated with sialic acid forms. The settings on record: for metabolic activity of the microglial cells (MTT, normalized to cell number): 24 hours treatment, 0.15 μM, 0.5 μM and 1.5 μM, FIG. 2B; for Intact viability of human microglia: summary of Example 3, MTT, 24 hours. On the procedure: A human microglial line derived from induced pluripotent stem cells as described in WO 2010/125110 was used to study the effect of sialic acid forms with different chain length. Human microglial cells were cultured on 5 μg/ml poly-L-lysin (PLL, Sigma)-coated dishes in N2-medium containing DMEM/F12 culture medium (Gibco) supplemented with 1% N2 (Invitrogen), 0.48 mM L-glutamine (Gibco) and optionally 100 μg/ml penicillin/streptomycin (Gibco). Cells were cultured with high density and splitted 1:2 when required.
The effect of different length and fractions of oligosialic acids and polysialic acids on the human microglial lines were analyzed by determination of cell viability normalized to the cell number and after treatment with monomeric sialic acid (SA, molecular weight of 0.3 kDa, Nacalai Tesque ING, Japan) and sialic acids consisting of 3 monomers (Tri-SA; molecular weight of 0.9 kDa, Nacalai Tesque ING, Japan) and sialic acids consisting of 6 monomers (Hexa-SA; molecular weight of 1.9 kDa, Nacalai Tesque ING, Japan), PSA with a number of sialic acid monomers between 14 and 26 (PSA-20; low molecular weight of PSA between 4.3 and 8 kDa for >90% of the substance) and PSA with a length between 46 and 110 of sialic acid monomers (PSA-60; medium molecular weight of PSA between 14.2 and 34 kDa for >90% of the substance).
The microglial cells were cultured in medium as described above and treated in culture with the different sialic acid forms.
Cell viability was determined by the MTT (3-(4,5-Dimethylthiazol-2-yl)-2,5-diphenyltetrazolium bromide, Millipore) assay after 24 hours treatment with distinct sialic acid forms with different chain length and normalized to the cell number. The light absorbance of the purple formazan in living cells was determined by a spectrophotometer at a wavelength of 570 nm (Perkin Elmer, Envision Multiplate Reader).

The test system of data set [2] is LPS-activated human microglia. Put plainly: LPS-induced TNF-alpha gene transcription in human microglia (qRT-PCR). The settings on record: LPS 1 μg/ml, 24 hours; for LPS-induced gene transcription of TNF-alpha: 0.15 μM, 0.5 μM and 1.5 μM, FIG. 3; for Anti-inflammatory effect on TNF-alpha of LPS-activated human microglia: summary of Example 4. As to the method: To analyse whether polysialic acid might interfere with a pro-inflammatory phenotype of human microglia, cultured human microglia were activated with lipopolysaccharides (LPS) and the effect of the distinct sialic acid forms including fractions of oligosialic and polysialic acid on the gene transcription of the pro-inflammatory cytokine tumor necrosis factor-alpha induced by the bacterial toxin LPS was determined. A human microglial line derived from induced pluripotent stem cells as described in WO 2010/125110 was used to study the effect of sialic acid forms with different chain length. Human microglial cells were cultured on 5 μg/ml poly-L-lysin (PLL, Sigma)-coated dishes in N2-medium containing DMEM/F12 culture medium (Gibco) supplemented with 1% N2 (Invitrogen), 0.48 mM L-glutamine (Gibco) and optionally 100 μg/ml penicillin/streptomycin (Gibco). Cells were cultured with high density and splitted 1:2 when required. The human induced pluripotent stem cell derived microglia line was treated with lipopolysaccharides (LPS, 1 μg/ml, Invivogen) and sialic acid forms with different chain length for 24 hours. Gene transcripts for tumor necrosis factor-α (TNF-alpha) were determined by quantitative RT-PCR and normalized to GAPDH. In detail, RNA isolation was performed using RNeasy Mini Kit (Qiagen) and transcription with the SuperScript First-Strand Synthesis System (Invitrogen). Quantitative RT-PCR with specific oligonucleotides (GAPDH: […] (SEQ ID NO: 1) and […] (SEQ ID NO: 2); TNFα: […] (SEQ ID NO: 3) and […] (SEQ ID NO: 4)) was performed using SYBR green PCR Master Mix with the Mastercycler epgradients S (Eppendorf). Results were normalized to GAPDH. Quantification using the delta-CT method was carried out.
(In general: In qPCR the cycle at which signal appears reflects the starting amount.)

In another data set the test system is human microglial cells. Put plainly: Phagocytosis associated oxidative burst: neural debris triggered superoxide release (DHE). The following applies: control experiment; 40 μM Trolox or 20 μg/ml SOD1. As to the method:
To measure the relative production of superoxide by the microglial cells, human microglial cells were plated in 4-chamber culture dishes. After 24 hours cells were treated with 5 mg/ml neural debris for 15 minutes with or without 1 hour PSA-20 pre-incubation at concentrations of 0.15 μM, 0.5 μM or 1.5 μM. Then, cells were washed 2-times with Krebs-HEPES-buffer. To detect the release of superoxide the cells were afterwards incubated for 15 minutes with 30 μM superoxide-sensitive fluorescent dye dihydroethidium (DHE) solution diluted in Krebs-HEPES-buffer. Finally cells were washed 2-times with Krebs-HEPES-buffer and fixed for 15 minutes with 0.25% glutaraldehyde and 4% PFA. In total, six images were randomly collected per experimental group by confocal laser scanning microscopy (Fluoview 1000, Olympus). All cells of the collected images were analyzed by Image J software (NIH).
To confirm the effect, Trolox as scavenger of superoxide and superoxide dismutase-1 (SOD1) as modifier of superoxide were used in a control experiment as described above using 1.5 μM of PSA-20 but adding either 40 μM Trolox or 20 μg/ml (SOD1) into the medium. […] As can be taken from the FIG. 9C, the radical scavenger Trolox and the superoxide dismutase SOD1 neutralized the neural debris triggered superoxide release and as controls confirmed that DHE detected an extracellular production of superoxide.

Data set [3] has as its system human microglial cells stimulated with fibrillary amyloid-β1-42. Nature of the data set: Amyloid-β1-42 induced superoxide release of human microglia (DHE). The settings on record: repeat, FIG. 4B; PSA-20 1.5 μM; Trolox 40 μM; SOD1 20 μg/ml; Aβ 10 μM. On the procedure:
The human microglial cell line was treated with human Alzheimer's disease associated fibrillary amyloid-beta peptide (Aβ) to mimic inflammatory signalling of Alzheimer's disease brain tissue. To obtain fibrillary components of Aβ, the synthetic amyloid-beta peptide (amyloid-beta 1-42, Bachem/Brucker, 10 μM) was preincubated at 37° C. for at least three days. The human microglial cells were treated with the different concentrations of 0.15 μM, 0.5 μM, or 1.5 μM of low molecular weight polysialic acid (PSA-20) for 60 minutes followed by incubation for 15 minutes with fibrillary Aβ. Then, 30 μM dihydroethidium (DHE) was added and incubated at 37° C. for 15 minutes for measurement of superoxide anion radical production. Cells were fixed with 4% paraformaldehyde plus 0.25% glutaraldehyde and analyzed by confocal microscopy. For the quantification of DHE staining intensity six pictures of each experiment were obtained and analyzed by ImageJ software (NIH). The background was subtracted and the mean values of the staining intensities were compared. Cells were fixed and the intensity of DHE was quantified by confocal microscopy.
To confirm the specificity of the DHE measurement, the determination of the effect of PSA-20 on superoxide production in human microglial cells was repeated. As a control the radical scavenger Trolox, a water-soluble vitamin E analogue, was added to the system. Furthermore, as additional control superoxide dismutase-1 (SOD1) was added into the medium. Superoxide should no longer be detectable by the DHE dye after successful transformation of superoxide by SOD1.
Human microglial cells were cultured alone and production of reactive oxygen species was analyzed after treatment with the Alzheimer's disease plaques associated fibrillary amyloid-β1-42. To measure the relative production of superoxide by the microglial cells, cells were plated in 4-chamber culture dishes. After 24 hours human microglial cells were treated with 1.5 μM of low molecular weight polysialic acid (PSA-20) for 60 minutes followed by incubation for 15 minutes with 10 μM fibrillary amyloid-β1-42. Control dishes were treated with either 1.5 μM PSA-20 and 40 μM Trolox or 1.5 μM PSA-20 and 20 μg/ml superoxide dismutase-1 (SOD1, Serva). Then, cells were washed 2-times with Krebs-HEPES-buffer and afterwards incubated for 15 minutes with 30 μM DHE solution (diluted in Krebs-HEPES-buffer). Finally cells were washed 2-times with Krebs-HEPES-buffer and fixed for 15 minutes with 0.25% glutaraldehyde and 4% PFA. In total, six images were randomly collected per experimental group by confocal laser scanning microscopy (Fluoview 1000, Olympus). All cells of the collected images were analyzed by Image J software (NIH).

As to `CC(=O)N[C@H]1[C@H]([C@H](O)[C@H](O)CO)OC(O)(C(=O)O)C[C@@H]1O` (stereo partly drawn) [SA, N-acetylneuraminic acid], in data set [1], the “metabolic activity of the microglial cells (MTT, normalized to cell number)” value is given as “did not affect the metabolic activity” and the “Intact viability of human microglia” value is reported as “Yes”. In data set [2], the “LPS-induced gene transcription of TNF-alpha” value was “did not significantly change” and the “Anti-inflammatory effect on TNF-alpha of LPS-activated human microglia” value is “No”.
Turning to `Cc1c(C)c2c(c(C)c1O)CCC(C)(C(=O)O)O2` (stereo not drawn) [Trolox, 6-hydroxy-2,5,7,8-tetramethylchroman-2-carboxylic acid, reference compound], the “neural debris triggered superoxide release” value with human microglial cells is “neutralized”. The “amyloid-β1-42 induced stimulation of the superoxide production” value in data set [3] is on record as “scavenged”.
“SOD1: superoxide dismutase-1 (Serva), added to the medium as a control”: the “neural debris triggered superoxide release” value in the data set on human microglial cells was “neutralized”. Further, in data set [3], the “amyloid-β1-42 induced stimulation of the superoxide production” value is reported as “neutralized”.
α2.8-polysialic acid [PSA-180]: in data set [1], the “metabolic activity of the microglial cells (MTT, normalized to cell number)” value is recorded as “significantly reduced” and the “Intact viability of human microglia” value is reported as “No”. Further, in data set [2], the “LPS-induced gene transcription of TNF-alpha” value is reported as “no significant anti-inflammatory effect” and the “Anti-inflammatory effect on TNF-alpha of LPS-activated human microglia” value is given as “No”.
